Source: patent US20070010446A1, “METHODS FOR TREATING INFLAMMATION USING THYROID STIMULATING HORMONE” (ZymoGenetics, Inc., priority 2003, published 2007)

Tests used:
[1] = tested on: C57BL/6 mice; experiment: LPS-induced mild endotoxemia mouse model, serum cytokines by ELISA; format: in vivo; conditions: treatment i.p. 1 hour prior, Dex […], TSH 2.0 mg/kg, Thyroxine 0.05 mg/kg; for TNFα (1 hr) +/− S.E.: serum 1 hour after 25 ug LPS i.p., PBS group 6990.8; for IL-6 (4 hr) +/− S.E.: serum 4 hours after 25 ug LPS i.p., PBS group 45.6
Protocol: The LPS-induced mild endotoxemia model is an in vivo model designed to mimic acute endotoxemia/sepsis by challenging mice with a low, non-lethal dose of bacterial endotoxin (lipopolysaccharide, LPS). Serum is collected at various timepoints (1-72 hours) after intraperitoneal LPS injection and analyzed for altered expression of a wide variety of pro- and anti-inflammatory cytokines and acute phase proteins that mediate the inflammatory response. The model provides a means to assess the potential anti-inflammatory effects of therapeutic candidates during a robust inflammatory response.
In this model, an initial experiment is run to determine the production of proinflammatory cytokines in response to an injection of LPS. For example, six-month old Balb/c (Charles River Laboratories, Wilmington, Mass.) female mice are injected with 25 μg LPS (Sigma) in sterile PBS intraperitoneally (i.p.). Serum samples are collected at 0, 1, 4, 8, 16, 24, 48 and 72 hours later, and are assayed for serum levels of inflammatory mediators, such as IL-1β, IL-6, TNFα, and IL-10. Commercially available ELISA kits (Biosource International, Camarillo, Calif.) can be used to deterime the serum levels. In this assay TNFα levels and IL-1β levels can be measured at 1 hour post-LPS injection, and IL-6, IL-10 and IL-10 can be measured at 4 hours post injection. From these inflammatory mediators, one or more is chosen as a representative biological marker(s) for the LPS model of mild endotoxemia.
Next, C57BL/6 mice (Charles River Laboratories; 5 mice/group) are treated i.p. with PBS, or the test compound in PBS 1 hour prior to LPS challenge. The mice are then challenged with 25 ug of LPS i.p. and are bled at 1 hour and 4 hours after LPS injection. The level of the representative biological marker(s) is analyzed by ELISA.
Thyroxine (0.05 mg/kg) and Dexamethasone (0.015 mg/kg) were run as negative and positive controls, respectively. […] This model can be optimized for dosage and choice of biological markers.

[2] = tested on: C57BL/6 mice; experiment: Delayed Type Hypersensitivity (DTH), OVA ear challenge; format: in vivo; conditions: Expt 3 (n = 7), adrenalectomized (ADX) mice; treatment i.p. at challenge (d 7); Dex […], TSH 2.0 mg/kg
[3] = tested on: thymus; conditions: mouse, in vivo

| SMILES | TNFα (1 hr) +/− S.E. [1] [pg/mL] | IL-6 (4 hr) +/− S.E. [1] [ng/mL] | CHANGE IN EAR THICKNESS, LEFT EAR (PBS) [2] | CHANGE IN EAR THICKNESS, RIGHT EAR (OVA) [2] | thymic atrophy (in words) [3] |
| --- | --- | --- | --- | --- | --- |
| N[C@@H](Cc1cc(I)c(Oc2cc(I)c(O)c(I)c2)c(I)c1)C(=O)O [Thyroxine] | 4289.5 ± 642.3 | 37.1 ± 0.9 |  |  |  |
| C[C@@H]1C[C@H]2[C@@H]3CCC4=CC(=O)C=C[C@]4(C)[C@@]3(F)[C@@H](O)C[C@]2(C)[C@@]1(O)C(=O)CO [Dex, Dexamethasone] | 3798.4 ± 415.7 | 35.2 ± 2.8 | 0.07 +/− 0.61 ×10^−3 inch | 3.71 +/− 0.64 ×10^−3 inch | obvious thymic atrophy |
